These are literature values, as cited in patent US10427251B2, “Fine silver particle dispersion, fine silver particles, and method for producing same” (BANDO CHEMICAL INDUSTRIES, LTD., priority 2014, dated 2019).

SMILES strings stand for the structures.

For the data set the following is noted: n-octanol/water.

With `NCCCN` [1,3-propanediamine], the “partition coefficient log P” value is given as −1.4.

For `COCCN` [2-methoxyethylamine], the “partition coefficient log P” value was −0.9.

As for `CCOCCCN` [3-ethoxypropylamine], the “partition coefficient log P” value is on record as −0.1.

With `COCCCN` [3-methoxypropylamine], the “partition coefficient log P” value is listed as −0.5.

On to `CCCCN` [butylamine], for which the “partition coefficient log P” value is 1.0.

Regarding `CCN` [ethylamine], the “partition coefficient log P” value is given as −0.3.

On to `CCCCCCN` [hexylamine], for which the “partition coefficient log P” value was 2.1.

With `NCCCCCO` [pentanolamine], the “partition coefficient log P” value is on record as −0.3.

For the molecule `CCCN` [propylamine], the “partition coefficient log P” value was 0.5.
